ChEMBL document CHEMBL5729071, “Cyano thienotriazolodiazepines and uses thereof” (2022)

Biological target: Bromodomain-containing protein 4 (Homo sapiens, UniProt O60885)
Assay: Assays were performed as described previously with minor modifications from the manufacturer's protocol (PerkinElmer, USA). All reagents were diluted in 50 mM HEPES, 100 mM NaCl, 0.1% BSA, pH 7.4 supplemented with 0.05% CHAPS and allowed to equilibrate to room temperature prior to addition to plates. […] Plates were sealed and incubated for a further 30 minutes, before the addition of 4 μl of streptavidin-coated donor beads (25 μg/ml) and 4 μl nickel chelate acceptor beads (25 μg/ml) under low light conditions. Plates were foil-sealed to protect from light, incubated at room temperature for 60 minutes and read on a PHERAstar FS plate reader (BMG Labtech, Germany) using an AlphaScreen 680 excitation/570 emission filter set. IC50 values were calculated in Prism 5 (GraphPad Software, USA) after normalization against corresponding DMSO controls and are given as the final concentration of compound in the 20 μl reaction volume.

## Cc1sc2c(c1C)C(c1ccc(C#N)cc1)=N[C@@H](CC(=O)OC(C)(C)C)c1nnc(C)n1-2
  IC50: 97 nM
